# Source: paper PMC7979765, “trans-Translation inhibitors bind to a novel site on the ribosome and clear Neisseria gonorrhoeae in vivo” (Nature Communications, 2021)
# “And” between values parts separate entries of the source, which are not always exact repeats. Equal values may be shown once. Read-outs that look alike come from different tables or passages of the source.
# Columns and labels:
# [1] = Serum protein binding, murine; assay type: in vitro ADME, mouse; conditions: Eurofins; for fraction unbound: mouse, serum, read-out: Serum binding (% bound) Murine (converted)
# Experimental: Serum protein binding was determined using an equilibrium dialysis method as described. The amount of compound in each chamber (buffer and serum) was measured using methods for reverse-phase liquid chromatography/mass spectroscopy methods that were customized for each compound.
# Solubility (formulated) = assay type: physicochemical
# trans-translation [2] = assay: In vitro trans-translation assay (S12 extract, nanoluc-ns, tmRNA-nl); assay type: biochemical, Escherichia coli; design: background subtraction: unit not given here; conditions: for normalized: activity, 0 = 100
# Excerpt: The in vitro trans-translation assay is designed to produce the first 157 amino acids of nano-luciferase from a non-stop mRNA (nanoluc-ns) and add the C-terminal peptide […] via a mutant version of E. coli tmRNA (tmRNA-nl) to reconstitute an active nano-luciferase[45]. In this assay, the tagged nano-luciferase gene has >30,000-fold increase in activity over the peptide made in the absence of tmRNA-nl.
# S12 lysates were made according to the procedure of Kim, et al.[46]. Briefly, a culture of E. coli BL21 (DE3) cells containing a pET28 plasmid carrying the E. coli T7 polymerase gene was grown at 37 °C to an OD600 = 0.8, induced with 1 mM IPTG and grown for an additional 3 h. Cells were harvested by centrifugation at 20,000 × g for 10 min at 4 °C and the pellet was resuspended in buffer A (20 mM Tris-acetate (pH 8.2), 14 mM Mg(OAc)2, 60 mM potassium glutamate, 1 mM DTT). Cells were lysed by sonication, the lysate was clarified by centrifugation at 12,000 × g for 10 min, and the supernatant was stored at −80 °C.
# E. coli SmpB was purified as previously described. tmRNA-nl, a variant of E. coli tmRNA encoding the final 11 residues of nano-luciferase, was transcribed from the tmRNA-nl synthetic DNA sequence in vitro, purified, and folded as previously described for wild-type E. coli tmRNA[3]. The nanoluc-stop template DNA was prepared as previously described[3] by PCR amplification from pMC1 using T7 universal and nanoluc-stop primers. The nanoluc-ns was prepared in a similar manner using pMC1 with T7 universal and nanoluc-ns primers.
# For in vitro trans-translation, tmRNA-nl and SmpB were premixed and stored on ice. S12 lysate (2 μl), freshly made polymix buffer (2 μl)[47] (final reaction concentrations 5 mM Hepes pH 7.6, 5 mM NH4Cl, 0.5 mM CaCl2, 1.5 mm MgCl2, 1 mM DTT, 8 mm putrescene, 2 mm ATP, 2 mM GTP, 1 mM CTP, 1 mM UTP, 0.3 mM each amino acid, 3 mg/ml E. coli tRNAs), nanoluc-ns template (0.5 μl; 60 ng) and 2 µl water were mixed and incubated at 37 °C for 5 min. This solution was dispensed to tubes containing 0.5 μl of different concentrations of an inhibitor prepared in 75% acetonitrile, 25% water, and incubated at 37 °C for 5 min. The tmRNA-nl/SmpB mixture (0.5 μl each, 2 μM final) was added to each tube and the samples were incubated at 37 °C for 1.5 h. NanoLuc substrate (Promega) was prepared according to the manufacturer’s instructions, one volume of this substrate solution was added to each sample tube, and the reactions transferred to a white 96-well plate. Luminescence readings were obtained using the SpectraMax i3 microplate reader. Data analysis was performed using GraphPad Prism 8.
# trans-translation [3] = assay: microbe, parasite or virus in culture; assay type: cell-based, Escherichia coli
# HeLa cells = assay: Mammalian cell cytotoxicity (CC50); assay type: cell-based, human; conditions: for NORMALIZED DATA (Fraction DMSO Control) / […] (Fraction DMSO Control): HeLa, per replicate
# Experimental: (§1) The half maximal cytotoxic concentration (CC50) of each compound against HeLa cells (ATCC CCL-2) was measured as previously described. […] The mean values for each biological replicate were averaged, and the CC50 was determined using a 4-parameter nonlinear curve fitting algorithm (GraphPad Prism). The average of the CC50s from two biological replicates was calculated and reported.
# [4] = Mammalian cell cytotoxicity (CC50); assay type: cell-based, human; conditions: human, HeLa cells (ATCC CCL-2)
# Experimental: as §1
# [5] = HeLa cytotoxicity, value per replicate
compound,measurement,setting,value
O=C(Nc1nnc(-c2ccc(F)cc2)o1)N1CCc2ccccc2C1 [MBX-4132],Serum binding (% bound) Murine,[1]; Replicate 1/2,99.9% and 95.5%
same,fraction unbound,[1]; Average Value,0.023
same,fraction unbound,[1]; Reported value,0.02
same,Solubility,Solubility (formulated),5000 µg/mL
same,normalized,trans-translation [2]; [4132] 0.01,102.817 and 102.626 and 90.8451
same,background subtraction,trans-translation [2]; [4132] 0.05,284
same,raw luminescence read (rlu),trans-translation [2]; [4132] 0.05,319 rlu
same,normalized,trans-translation [2]; [4132] 0.05,66.6667
same,background subtraction,trans-translation [2]; [4132] 0.1,337 and 425 and 284
same,raw luminescence read (rlu),trans-translation [2]; [4132] 0.1,443 rlu and 372 rlu and 319 rlu
same,normalized,trans-translation [2]; [4132] 0.1,59.331 and 41.3424 and 66.6667
same,background subtraction,trans-translation [2]; [4132] 0.5,266 and 178
same,raw luminescence read (rlu),trans-translation [2]; [4132] 0.5,301 rlu and 213 rlu
same,normalized,trans-translation [2]; [4132] 0.5,46.831 and 41.784
same,background subtraction,trans-translation [2]; [4132] 1,213 and 266 and 426
same,raw luminescence read (rlu),trans-translation [2]; [4132] 1,248 rlu and 284 rlu and 461 rlu
same,background subtraction,trans-translation [2]; [4132] 2,302 and 230
same,raw luminescence read (rlu),trans-translation [2]; [4132] 2,337 rlu and 248 rlu
same,IC50,trans-translation [2]; in vitro reconstituted assay,0.4 µM
same,IC50,"trans-translation [3]; Escherichia coli, E. coli non-stop luciferase reporter, Fig. 1B, read-out: in vivo luc-trpAt IC50",0.6 µM
same,fold induction at 0.046875 µM,"trans-translation [3]; Escherichia coli, read-out: fold induction, AVE 190919+190925, [4132] 0.046875 uM",1.01
same,fold induction at 0.0625 µM,"trans-translation [3]; Escherichia coli, read-out: fold induction, AVE 190919+190925, [4132] 0.0625 uM",0.976
same,fold induction at 0.09375 µM,"trans-translation [3]; Escherichia coli, read-out: fold induction, AVE 190919+190925, [4132] 0.09375 uM",1.01
same,fold induction at 0.125 µM,"trans-translation [3]; Escherichia coli, read-out: fold induction, AVE 190919+190925, [4132] 0.125 uM",1.05
same,fold induction at 0.1875 µM,"trans-translation [3]; Escherichia coli, read-out: fold induction, AVE 190919+190925, [4132] 0.1875 uM",1.2
same,fold induction at 0.25 µM,"trans-translation [3]; Escherichia coli, read-out: fold induction, AVE 190919+190925, [4132] 0.25 uM",1.35
same,fold induction at 0.375 µM,"trans-translation [3]; Escherichia coli, read-out: fold induction, AVE 190919+190925, [4132] 0.375 uM",1.66
same,fold induction at 0.5 µM,"trans-translation [3]; Escherichia coli, read-out: fold induction, AVE 190919+190925, [4132] 0.5 uM",2
same,fold induction at 0.75 µM,"trans-translation [3]; Escherichia coli, read-out: fold induction, AVE 190919+190925, [4132] 0.75 uM",2.22
same,fold induction at 1 µM,"trans-translation [3]; Escherichia coli, read-out: fold induction, AVE 190919+190925, [4132] 1 uM",2.22
same,fold induction at 1.5 µM,"trans-translation [3]; Escherichia coli, read-out: fold induction, AVE 190919+190925, [4132] 1.5 uM",2.16
same,fold induction at 0.046875 µM,"trans-translation [3]; Escherichia coli, read-out: fold induction, AVE per run, [4132] 0.046875 uM, run 190919 or 190925",1.09
same,fold induction at 0.0625 µM,"trans-translation [3]; Escherichia coli, read-out: fold induction, AVE per run, [4132] 0.0625 uM, run 190919 or 190925",1.02
same,fold induction at 0.09375 µM,"trans-translation [3]; Escherichia coli, read-out: fold induction, AVE per run, [4132] 0.09375 uM, run 190919 or 190925",1.04
same,fold induction at 0.125 µM,"trans-translation [3]; Escherichia coli, read-out: fold induction, AVE per run, [4132] 0.125 uM, run 190919 or 190925",1.06
same,fold induction at 0.1875 µM,"trans-translation [3]; Escherichia coli, read-out: fold induction, AVE per run, [4132] 0.1875 uM, run 190919 or 190925",1.16
same,fold induction at 0.25 µM,"trans-translation [3]; Escherichia coli, read-out: fold induction, AVE per run, [4132] 0.25 uM, run 190919 or 190925",1.35
same,fold induction at 0.375 µM,"trans-translation [3]; Escherichia coli, read-out: fold induction, AVE per run, [4132] 0.375 uM, run 190919 or 190925",1.66
same,fold induction at 0.5 µM,"trans-translation [3]; Escherichia coli, read-out: fold induction, AVE per run, [4132] 0.5 uM, run 190919 or 190925",1.82
same,fold induction at 0.75 µM,"trans-translation [3]; Escherichia coli, read-out: fold induction, AVE per run, [4132] 0.75 uM, run 190919 or 190925",1.93
same,fold induction at 1 µM,"trans-translation [3]; Escherichia coli, read-out: fold induction, AVE per run, [4132] 1 uM, run 190919 or 190925",1.9
same,fold induction at 1.5 µM,"trans-translation [3]; Escherichia coli, read-out: fold induction, AVE per run, [4132] 1.5 uM, run 190919 or 190925",1.86
same,"fold induction, AVE per run","trans-translation [3]; [4132] 0.046875 uM, run 190919 or 190925, 0.046875 µM",0.9318
same,"fold induction, AVE per run","trans-translation [3]; [4132] 0.0625 uM, run 190919 or 190925, 0.0625 µM",0.9331
same,"fold induction, AVE per run","trans-translation [3]; [4132] 0.09375 uM, run 190919 or 190925, 0.09375 µM",0.9749
same,"fold induction, AVE per run","trans-translation [3]; [4132] 0.125 uM, run 190919 or 190925, 0.125 µM",1.0347
same,"fold induction, AVE per run","trans-translation [3]; [4132] 0.1875 uM, run 190919 or 190925, 0.1875 µM",1.234
same,"fold induction, AVE per run","trans-translation [3]; [4132] 0.25 uM, run 190919 or 190925, 0.25 µM",1.356
same,"fold induction, AVE per run","trans-translation [3]; [4132] 0.375 uM, run 190919 or 190925, 0.375 µM",1.653
same,"fold induction, AVE per run","trans-translation [3]; [4132] 0.5 uM, run 190919 or 190925, 0.5 µM",2.18
same,"fold induction, AVE per run","trans-translation [3]; [4132] 0.75 uM, run 190919 or 190925, 0.75 µM",2.51
same,"fold induction, AVE per run","trans-translation [3]; [4132] 1 uM, run 190919 or 190925, 1 µM",2.546
same,"fold induction, AVE per run","trans-translation [3]; [4132] 1.5 uM, run 190919 or 190925, 1.5 µM",2.459
same,CC50,HeLa cells; [5],40.1 µM and 36.3 µM and 20.1 µM and 22.1 µM and 22.6 µM
same,NORMALIZED DATA (Fraction DMSO Control),HeLa cells; [CMPD] 0.78125 µM,0.9968 Fraction DMSO Control and 1.046 Fraction DMSO Control and 1.033 Fraction DMSO Control and 0.9287 Fraction DMSO Control and 0.9308 Fraction DMSO Control and 0.9008 Fraction DMSO Control
same,NORMALIZED DATA (Fraction DMSO Control),HeLa cells; [CMPD] 1.5625 µM,0.97 Fraction DMSO Control and 0.9994 Fraction DMSO Control and 0.9978 Fraction DMSO Control and 0.9354 Fraction DMSO Control and 0.9201 Fraction DMSO Control and 0.9227 Fraction DMSO Control
same,NORMALIZED DATA (Fraction DMSO Control),HeLa cells; [CMPD] 3.125 µM,0.9272 Fraction DMSO Control and 0.9885 Fraction DMSO Control and 0.9744 Fraction DMSO Control and 0.9295 Fraction DMSO Control and 0.9174 Fraction DMSO Control and 0.8829 Fraction DMSO Control
same,NORMALIZED DATA (Fraction DMSO Control),HeLa cells; [CMPD] 6.25 µM,0.9057 Fraction DMSO Control and 0.9944 Fraction DMSO Control and 0.9769 Fraction DMSO Control and 0.8719 Fraction DMSO Control and 0.9166 Fraction DMSO Control and 0.9146 Fraction DMSO Control
same,NORMALIZED DATA (Fraction DMSO Control),HeLa cells; [CMPD] 12.5 µM,0.7347 Fraction DMSO Control and 0.9472 Fraction DMSO Control and 1.04 Fraction DMSO Control and 0.6999 Fraction DMSO Control and 0.7003 Fraction DMSO Control and 0.7354 Fraction DMSO Control
same,NORMALIZED DATA (Fraction DMSO Control),HeLa cells; [CMPD] 25 µM,0.4205 Fraction DMSO Control and 0.7028 Fraction DMSO Control and 0.4452 Fraction DMSO Control and 0.4899 Fraction DMSO Control and 0.486 Fraction DMSO Control
same,[…] (Fraction DMSO Control),HeLa cells; [CMPD] 25 µM,0.7319 Fraction DMSO Control
same,NORMALIZED DATA (Fraction DMSO Control),HeLa cells; [CMPD] 50 µM,0.4043 Fraction DMSO Control and 0.3802 Fraction DMSO Control and 0.2112 Fraction DMSO Control and 0.1979 Fraction DMSO Control
same,[…] (Fraction DMSO Control),HeLa cells; [CMPD] 50 µM,0.2642 Fraction DMSO Control and 0.1957 Fraction DMSO Control
same,NORMALIZED DATA (Fraction DMSO Control),HeLa cells; [CMPD] 100 µM,0.2429 Fraction DMSO Control and 0.2248 Fraction DMSO Control and 0.2297 Fraction DMSO Control
same,[…] (Fraction DMSO Control),HeLa cells; [CMPD] 100 µM,0.1038 Fraction DMSO Control and 0.3131 Fraction DMSO Control and 0.2661 Fraction DMSO Control
same,CC50,[4]; [5],22.2 µM
same,CC50,[4]; half-maximal cytotoxic concentration against HeLa cells,45 µM
